Values joined by “and” are separate entries in the source; they are usually repeats but may differ in a detail not shown here. Equal entries are not always repeated.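 Tested at 5 concentrations; 48 h exposure; 96-well plates; endpoints linearly interpolated, else capped at highest concentration. GI50: concentration for 50% inhibition of growth. TGI is the concentration that stops growth completely.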 *1 amine or outer side, *2 acyl side, *3 side chain or, on linkers, in order; H or OH if unused. Where a SMILES comes first, the peptide text is derived from it. Bridges are numbered along the chain shown (N, C = ends). [ ]: non-standard residue; d: D form. ξ: configuration not given here. X4 = CCC(C)C(N[*:1])C(O)CC(=O)O[C@H](C(=O)C(C)C(=O)[*:2])C(C)C; NMeY = CN[C@@H](Cc1ccc(O)cc1)C(=O)O; X9 = O=C([C@@H]1CC(O)CN1[*:1])[*:2]; ξNMeL = CNC(CC(C)C)C(=O)O; ξT = CC(O)C(N)C(=O)O
Assays:
Assay in all cases: NCI anticancer screen, dose series, 48 h
786-0 renal = system: 786-0 renal
HOP-62 NSCLC = system: HOP-62 NSCLC
HOP-92 NSCLC = system: HOP-92 NSCLC
IGROV1 ovarian = system: IGROV1 ovarian
KM12 colon = system: KM12 colon
NCI-H23 lung = system: NCI-H23 lung
NCI/ADR-RES ovarian = system: NCI/ADR-RES ovarian
SR leukemia = system: SR leukemia
UACC-257 melanoma = system: UACC-257 melanoma
UACC-62 melanoma = system: UACC-62 melanoma

Row | SMILES | TGI (786-0 renal) | TGI (HOP-62 NSCLC) | TGI (HOP-92 NSCLC) | TGI (IGROV1 ovarian) | TGI (KM12 colon) [µM] | TGI (NCI-H23 lung) | TGI (NCI/ADR-RES ovarian) | TGI (SR leukemia) [µM] | TGI (UACC-257 melanoma) | TGI (UACC-62 melanoma) | GI50 (786-0 renal) | GI50 (HOP-62 NSCLC) | GI50 (HOP-92 NSCLC) [µM] | GI50 (IGROV1 ovarian) | GI50 (KM12 colon) [µM] | GI50 (NCI-H23 lung) | GI50 (NCI/ADR-RES ovarian) | GI50 (SR leukemia) | GI50 (UACC-257 melanoma) | GI50 (UACC-62 melanoma)
1 | O=C(O)CC(Cc1ccc2c(c1)OCO2)C(=O)O (stereo not given) | > 100 µM | > 100 µM | > 100 µM | > 100 µM | > 100 | > 100 µM | > 100 µM | > 100 | > 100 µM | > 100 µM |  |  |  |  |  |  |  |  |  | 
2 | O=c1cc/c(=N\Nc2ccccc2)c(=O)/c1=N/Nc1ccccc1 | > 50 µM | > 50 µM | > 50 µM | > 50 µM | > 50 | > 50 µM | > 50 µM | > 50 | > 50 µM | > 50 µM | > 50 µM | > 50 µM | > 50 | > 50 µM | > 50 | > 50 µM | > 50 µM | > 50 µM | > 50 µM | > 50 µM
3 | c1ccc(-c2nc(Nc3ccc(-c4nc5ccccc5[nH]4)cc3)nc(N3CCOCC3)n2)cc1 | 1.25 µM | 3.52 µM | 3.05 µM |  | 3.19 | 4.78 µM | 5.53 µM | 0.555 |  | 3.48 µM | 0.257 µM | 1.73 µM | 1.38 |  | 1.62 | 2.07 µM | 1.93 µM | 0.125 µM |  | 1.66 µM
4 | COc1ccc(C2=NNC(c3ccc(-c4ccc(OC)cc4[N+](=O)[O-])o3)C2)cc1 (stereo not given) | > 100 µM | > 100 µM | 81 µM | > 100 µM | > 100 | > 100 µM | 59.9 µM | > 100 | > 100 µM | 19.4 µM | 48.8 µM | 30.6 µM | 15.1 | 59.9 µM | 27.4 | 33 µM | 17.9 µM | 20.2 µM | 38.4 µM | 0.691 µM
5 | CCCCCCn1c(-c2ccc(C(=O)O/N=C(\N)c3ccc(OC)cc3)cc2)nc(-c2ccccc2)c1-c1ccccc1 | 0.833 µM | 4.66 µM | 2.61 µM | 0.869 µM | > 100 | 2.93 µM | 3.41 µM | 0.528 | > 100 µM |  | 0.276 µM | 1.9 µM | 1.12 | 0.295 µM | 2.81 | 1.31 µM | 1.18 µM | 0.196 µM | 4.07 µM | 
6 | C[C@]12CC[C@H]3[C@@H](CC=C4C[C@@H](O)CC[C@@]43C)[C@@H]1C/C(=C\c1cccc(OCCN3CCOCC3)c1)[C@@H]2O | > 100 µM | > 100 µM | > 100 µM | > 100 µM | > 100 | > 100 µM | > 100 µM |  | 84.3 µM | > 100 µM | 50.7 µM | > 100 µM | > 100 | 46 µM | > 100 | 48.5 µM | 74.1 µM |  | 16.6 µM | > 100 µM
7 | OCCNc1nc(NCCO)nc(Nc2ccc(C3=NN(c4cc(Cl)cc(Cl)c4)C(c4ccc(Cl)cc4)C3)cc2)n1 (stereo not given) | 3.28 µM |  | 4.42 µM | 5.68 µM | 4 | 3.4 µM | 7.08 µM | 3.31 | 3.78 µM | 3.37 µM | 1.64 µM |  | 2.04 | 2.48 µM | 1.85 | 1.72 µM | 2.6 µM | 1.45 µM | 1.95 µM | 1.72 µM
8 | CC(C)(C)Cn1c(N)nc2ccc(-c3[nH]c(C(C)(C)C)nc3-c3ccc(F)cc3)nc21 | 25.9 µM | 29 µM | 26.3 µM | 16.4 µM | 23.9 | 31 µM | 33.1 µM | 47.9 | 23.9 µM | 23.2 µM | 9.75 µM | 14.2 µM | 3.41 | 2.66 µM | 10.3 | 13.9 µM | 8.67 µM | 10.5 µM | 11.2 µM | 10.1 µM
9 | CCC(C)C1NC(=O)C(NC(=O)C(CC(C)C)N(C)C(=O)[C@@H]2CC(O)CN2)C(C)OC(=O)[C@H](Cc2ccc(OC)cc2)N(C)C(=O)[C@@H]2CCCN2C(=O)[C@H](CC(C)C)NC(=O)C(C)C(=O)[C@H](C(C)C)OC(=O)CC1O (stereo not given in full) (H-[X9][ξNMeL][ξT][X4]LP[NMeY](Me); ester 3-C) | 0.149 µM and 1.25 µM | 0.154 µM | 0.242 µM and 0.0658 µM | 0.107 µM and 0.141 µM | 0.105 |  | > 100 µM | > 100 | 0.185 µM and 0.608 µM | 0.0231 µM and 0.0117 µM | 0.0162 µM |  |  |  |  |  | 4.46 µM |  |  | 
10 | C=C1C(=O)O[C@H]2[C@H]1CC/C(COC(=O)NCCc1ccc(OC)cc1)=C\CC[C@@]1(C)O[C@@H]21 | 4.22 µM | 27.1 µM | 6.19 µM | 7.32 µM | 24.4 | 18.6 µM | 32.6 µM | 7.87 | 6.85 µM | 3.05 µM | 1.76 µM | 12.2 µM | 1.99 | 2.61 µM | 8.36 | 4.34 µM | 10 µM | 2.07 µM | 2.49 µM | 1.25 µM
11 | COc1cc(N2CCC(N(C)C)CC2)ccc1Nc1ncc(Cl)c(Nc2ccccc2P(C)(C)=O)n1 | 10 µM and > 6.3 µM | 4.72 µM and > 10 µM | 0.918 µM | > 100 µM | > 30 | 17.1 µM and > 4.62 µM | 98.1 µM and > 10 µM |  | 30 µM and > 8.47 µM | 20.2 µM and > 5.16 µM | 1.12 µM and 0.483 µM | 0.384 µM and 0.232 µM | 0.0882 | 0.687 µM and 0.181 µM |  | 1.33 µM and 0.338 µM | 15.6 µM and > 6.15 µM | < 0.0113 µM and 0.0295 µM | 4.01 µM and 0.61 µM | 3.07 µM and 0.775 µM
12 | O=C(Oc1ccccc1)c1cc(O)c(O)c(O)c1 | 50 µM | 70.3 µM | 81.4 µM | > 100 µM | > 100 | 59.2 µM | 56.7 µM |  | > 100 µM | 56.4 µM | 11.2 µM | 5.13 µM | 8.75 | 11.6 µM | 11.5 | 11.7 µM | 11.4 µM |  | 35.8 µM | 8.45 µM
13 | N#Cc1nc(-c2cccc(Br)c2)cc(-c2ccc(Nc3nc(N4CCCCC4)nc(N4CCCCC4)n3)cc2)c1N | > 100 µM | 8.76 µM | 3.36 µM |  | 3.91 | 8.33 µM | > 100 µM | > 100 | 29.8 µM | 3.27 µM | 3.29 µM | 2.64 µM | 1.68 |  | 1.91 | 2.39 µM | 3.33 µM | 1.29 µM | 2.98 µM | 1.5 µM
